Laboratory results reported in publication PMC11433870, “Neurotoxicity, Neuroprotection, In Vitro MAOA/MAOB Inhibitory Activity Assessment, Molecular Docking, and Permeability Assay Studies of Newly Synthesized Hydrazones Containing a Pyrrole Ring” (Molecules, 2024).

Assays:
[1] = system: isolated rat brain synaptosomes; experiment: 6-OHDA-induced neurotoxicity model: synaptosomal viability; format: cell-based; conditions: toxic agent applied alone at 150 µM, compared to control (untreated synaptosomes)
Description: (§1) Synaptosomes and mitochondria were obtained by multiple, subcellular fractionation using a Percoll gradient. The necessary brain homogenate was prepared and centrifuged at 1000× g for 5 min at +4 °C. After centrifugation, the supernatants were collected and centrifuged again at 1000× g for 5 min at +4 °C. The supernatants from the two centrifugations were mixed and distributed into four tubes. The tubes were centrifuged at 10,000× g for 20 min at +4 °C three times. The last two centrifugations were for purification of synaptosomes and mitochondria.
The isolation of the required fractions was based on the formation of a colloidal solution of silicon (Percoll), as per the procedure, including: 1. Preparation of a 90% stock solution of Percoll, followed by preparation of two Percoll solutions of different percentages: 16% and 10%. An amount of 4 mL of each of the prepared 16% and 10% Percoll solutions was placed in six test tubes. A 90% Percoll (7.5% Percoll) was added to the precipitate obtained from the previous step from the last centrifugation. The obtained mixtures in all 12 tubes were centrifuged for 20 min at 15,000× g +4 °C. […]
After 1 h incubation with the substances and toxic agent, synaptosomes were centrifuged on a microcentrifuge for 1 min at 15,000× g. […] After dissolution, the amount of formazan is measured spectrophotometrically at λ = 580 nm.

[2] = system: isolated rat brain synaptosomes; experiment: 6-OHDA-induced neurotoxicity model: GSH level; format: cell-based; conditions: for preservation of GSH level: 50 µM in combination with 6-OHDA (150 µM), compared to the toxic agent
Description: as §1
(§2) The isolation of the required fractions was based on the formation of a colloidal solution of silicon (Percoll), as per the procedure, including: 1. Preparation of a 90% stock solution of Percoll, followed by preparation of two Percoll solutions of different percentages: 16% and 10%. An amount of 4 mL of each of the prepared 16% and 10% Percoll solutions was placed in six test tubes. A 90% Percoll (7.5% Percoll) was added to the precipitate obtained from the previous step from the last centrifugation. The obtained mixtures in all 12 tubes were centrifuged for 20 min at 15,000× g +4 °C. After centrifugation, three layers are formed in the tubes. The bottom layer contains mitochondria, the top layer contains lipids, and the middle layer—at the 16% to 10% Percoll limit—contains synaptosomes. The respective layer from each tube is removed through a glass pasteurizer and collected into one. Buffer B + glucose is added to it. The mixture was centrifuged at 10,000× g for 20 min at +4 °C. Thus, the isolation buffer is exchanged with the incubation buffer. After centrifugation, the pellet where the synaptosomes are mixed and made up with buffer B + glucose.
(§3) Synaptosomes and mitochondria were incubated with the test substances at a concentration of 50 µM for 1 h.
Synaptosomes were incubated with 6-OHDA (150 μM) for 1 h.
(§4) After precipitation of the proteins with trichloroacetic acid, the thiol groups in the supernatant were determined by DTNB, which produced a yellow-colored compound that absorbs light at λ = 412 nm. After incubation, synaptosomes were centrifuged at 4000× g for 3 min. The supernatant was removed and the pellet taken for GSH determination. It was treated with 5% trichloroacetic acid, then left for 10 min on ice. It was centrifuged at 8000× g for 10 min (2 °C). The supernatant is taken for GSH determination and frozen at −20 °C. Immediately before measurement, the samples are neutralized with 5N NaOH [58].

[3] = system: isolated rat brain synaptosomes; experiment: Neurotoxicity: synaptosomal viability (MTT), substances applied alone; format: cell-based; conditions: 50 µM applied alone, 1 h, compared to control (untreated synaptosomes)
Description: as §1, §2, §3
After 1 h incubation with the substances and toxic agent, synaptosomes were centrifuged on a microcentrifuge for 1 min at 15,000× g. The pellet was mixed gently with buffer B + glucose, and the supernatant where 6-OHDA was discarded to prevent oxidation of MTT. Centrifuge again at 15,000× g for 1 min. After the second wash, buffer B + glucose was added to the pellet. To the ‘washed’ synaptosomes, 60 µL of MTT solution is added. The plates were incubated with the MTT solution at 37 °C for 10 min. After incubation, the samples were centrifuged at 15,000× g for 2 min. The excess liquid was removed, and a DMSO solution was used to dissolve the formed formazan crystals. After dissolution, the amount of formazan is measured spectrophotometrically at λ = 580 nm.

[4] = system: isolated rat brain synaptosomes; experiment: Neurotoxicity: reduced glutathione (GSH) level in synaptosomes, substances applied alone; format: cell-based; conditions: 50 µM applied alone, 1 h, compared to control
Description: as §1, §2, §3, §4

[5] = system: isolated rat brain mitochondria; experiment: Neurotoxicity: MDA production in brain mitochondria, substances applied alone; format: cell-based; conditions: 50 µM applied alone, compared to control
Description: as §1, §2, §3
To the mitochondria was added 0.3 mL of 0.2% thiobarbituric acid and 0.25 mL of sulfuric acid (0.05 M), and the mixture was boiled for 30 min. After boiling, the tubes were placed on ice, and 0.4 mL of n-butanol was added to each, then centrifuged at 3500× g for 10 min. The amount of MDA was determined spectrophotometrically at 532 nm.

[6] = system: isolated rat brain mitochondria; experiment: Neurotoxicity: GSH level in brain mitochondria, substances applied alone; format: cell-based; conditions: 50 µM applied alone, compared to control
Description: as §1, §2
[…]. After centrifugation of the homogenate at 6000× g, a 0.04% solution of DTNB was added to the supernatant to give a yellow color, the determination being spectrophotometric at 412 nm.

[7] = system: isolated rat brain microsomes; experiment: Neurotoxicity: MDA production in brain microsomes, substances applied alone; format: cell-based; conditions: 50 µM applied alone, compared to control
Description: (§5) The brain was homogenized in 9 volume parts of 0.1 M Tris buffer containing: 0.1 mM dithiothreitol, 0.1 mM phenylmethylsulfonyl fluoride, 0.2 mM EDTA, 1.15% KCl, and 20% (v/v) glycerol (pH 7.4). The resulting homogenate was centrifuged twice at 17,000× g for 30 min. The supernatants from the two centrifugations were pooled and centrifuged twice at 100,000× g for 1 h. The pellet was frozen in 0.1 M Tris buffer.
(§6) After completion of incubation of the microsomes with the substances and toxic agent, the reaction was stopped by the addition of 0.5 mL of 20% trichloroacetic acid, followed by 0.5 mL of 0.67% thiobarbituric acid. The ongoing reactions are associated with the formation of a colored complex between the malondialdehyde formed and thiobarbituric acid. The determination of MDA was spectrophotometric at 535 nm. A molar extinction coefficient of […] was used for the calculation.

[8] = system: isolated rat brain microsomes; experiment: Fe2+/AA-induced non-enzyme lipid peroxidation model: MDA production; format: cell-based; conditions: 50 µM in combination with Fe2+/AA, compared to the toxic agent
Description: as §5
Non-enzyme-induced lipid peroxidation was induced with 20 μM ferrous sulfate solution and 0.5 mM ascorbic acid solution [62].
as §6

[9] = biological target: T1, human recombinant MAOA enzyme (hMAOA) (Homo sapiens, UniProt P21397); experiment: Human recombinant MAOA enzyme activity (fluorometric, Amplex Red); format: biochemical; conditions: read-out: IC50 (EC50), (µM ± SD) hMAOA
T1 sequence (P21397 1-527): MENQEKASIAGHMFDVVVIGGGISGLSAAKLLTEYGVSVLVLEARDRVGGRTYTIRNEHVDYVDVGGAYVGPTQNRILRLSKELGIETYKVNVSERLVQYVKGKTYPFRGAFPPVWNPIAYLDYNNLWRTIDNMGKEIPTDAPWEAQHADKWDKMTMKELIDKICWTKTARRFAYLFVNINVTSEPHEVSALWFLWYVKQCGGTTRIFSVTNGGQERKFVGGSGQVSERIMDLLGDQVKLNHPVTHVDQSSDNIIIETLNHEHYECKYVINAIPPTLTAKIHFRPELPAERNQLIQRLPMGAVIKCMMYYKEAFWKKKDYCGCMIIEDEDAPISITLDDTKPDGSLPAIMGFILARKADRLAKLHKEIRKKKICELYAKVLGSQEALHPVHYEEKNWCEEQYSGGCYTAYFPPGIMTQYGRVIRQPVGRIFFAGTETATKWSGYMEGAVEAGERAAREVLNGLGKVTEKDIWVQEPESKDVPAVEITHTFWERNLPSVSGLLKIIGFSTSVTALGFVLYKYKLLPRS

[10] = biological target: T2, human recombinant MAOB enzyme (hMAOB) (Homo sapiens, UniProt P27338); experiment: Human recombinant MAOB enzyme activity (fluorometric, Amplex Red); format: biochemical; conditions: for inhibition at 1 µM: compared to control (pure hMAOB); for IC50: read-out: IC50 (EC50), (µM ± SD) hMAOB;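 for all read-outs here: tyramine as substrate, H2O2 formation detected by horseradish peroxidase coupled Amplex Red fluorescence read at 570 and 690 nm, compounds incubated with enzyme 30 min at 37 °C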
T2 sequence (P27338 1-520): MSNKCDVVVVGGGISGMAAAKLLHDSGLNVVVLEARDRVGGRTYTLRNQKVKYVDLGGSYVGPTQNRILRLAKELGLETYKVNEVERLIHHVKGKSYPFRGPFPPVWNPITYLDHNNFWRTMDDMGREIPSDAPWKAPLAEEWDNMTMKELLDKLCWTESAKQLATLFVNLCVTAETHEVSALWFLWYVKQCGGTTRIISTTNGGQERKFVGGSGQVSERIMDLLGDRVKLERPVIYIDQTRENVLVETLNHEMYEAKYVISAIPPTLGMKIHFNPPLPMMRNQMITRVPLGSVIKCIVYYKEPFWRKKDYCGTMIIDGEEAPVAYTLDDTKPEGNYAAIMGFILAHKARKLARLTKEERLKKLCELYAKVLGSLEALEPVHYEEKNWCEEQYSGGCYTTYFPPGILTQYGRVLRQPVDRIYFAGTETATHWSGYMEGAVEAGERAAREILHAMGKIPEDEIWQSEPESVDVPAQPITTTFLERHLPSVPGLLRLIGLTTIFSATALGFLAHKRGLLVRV

[11] = pH 7.4, 50 µM, 4 h, 25 °C; Pe calculated in 10^−6 cm/s, presented as −logPe
[12] = system: isolated rat brain mitochondria; experiment: t-BuOOH-induced oxidative stress model: GSH level; conditions: 50 µM in combination with t-BuOOH (75 µM), compared to the toxic agent
[13] = system: isolated rat brain mitochondria; experiment: t-BuOOH-induced oxidative stress model: MDA production; conditions: 50 µM in combination with t-BuOOH (75 µM), compared to the toxic agent

Row | IC50 [9] [µM] | SI: hMAOB selectivity index = IC50(hMAOA)/IC50(hMAOB) [10] | inhibition at 1 µM [10] [%] | IC50 [10] [µM] | PAMPA BBB −logPe [11] | Compound | decrease in synaptosomal viability by toxic agent alone [1] [%] | decrease in GSH level by toxic agent alone ([2]; toxic agent applied alone at 150 µM, compared to control) [%] | decrease of synaptosomal viability [3] [%] | decrease of glutathione (GSH) level [4] [%] | increase of MDA production [5] [%] | decrease of GSH level [6] [%] | increase of MDA production [7] [%] | preservation of GSH level [2] [%] | decrease of MDA production [8] [%] | preservation of GSH level [12] [%] | reduction of MDA production [13] [%]
1 |  |  |  |  |  | NCCc1cc(O)c(O)cc1O [6-OHDA, 6-hydroxydopamine, reference compound] | 50 | 50 |  |  |  |  |  |  |  |  | 
2 | > 100 | >123 | 20 | 0.812 ± 0.1 | 4.849 ± 0.043 | CCOC(=O)c1cc(-c2ccc(Br)cc2)n(CC(=O)NN=Cc2ccc(N(C)C)cc2)c1C [7a] |  |  | 30 | 25 | 63 | 20 | 54 | 50 | 34 | 40 | 14
3 | > 100 | >123 | 20 | 0.814 ± 0.2 | 4.631 ± 0.047 | CCOC(=O)c1cc(-c2ccc(Br)cc2)n(CCC(=O)NN=Cc2ccc([N+](=O)[O-])cc2)c1C [8c] |  |  | 30 | 25 | 66 | 25 | 60 | 50 | 27 | 40 | 5
4 | > 100 | >123 | 25 | 0.815 ± 0.1 | 4.444 ± 0.004 | CCOC(=O)c1cc(-c2ccc(Br)cc2)n(CCC(=O)NN=Cc2ccc(Cl)cc2)c1C [8b] |  |  | 30 | 20 | 52 | 20 | 51 | 50 | 31 | 50 | 9
